Test results published in article PMC7501730, “Discovery of novel small molecule inhibitors of S100P with in vitro anti-metastatic effects on pancreatic cancer cells” (European Journal of Medicinal Chemistry, 2020).
Read-outs that look alike come from different tables or passages of the source.

How the values were obtained:
[1] = target: T1, S100P-RAGE interaction (Homo sapiens, UniProt P25815); experiment: ELISA of S100P-RAGE binding inhibition; settings: for IC50: read-out: Estimated IC50; for ELISA inhibition: concentration with significant inhibition of S100P-RAGE binding, asterisks = significance by one-way ANOVA
T1 construct: His tag (N); made in house; host or cells: Escherichia coli BL21*
T1 sequence (P25815 1-95): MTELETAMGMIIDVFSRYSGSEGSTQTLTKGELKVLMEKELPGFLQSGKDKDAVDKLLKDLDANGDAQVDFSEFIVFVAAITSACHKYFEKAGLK
Description: The purchased computational screening hits were subjected to initial biological testing for inhibition of S100P-RAGE binding (ELISA), with cromolyn as positive control, using an adaptation of the reported ELISA for S100 family members.
Fig. 2 Effects of compounds 1–14 on S100P binding to RAGE. Human S100P (2 μM) coated wells were incubated with increasing concentrations of the compound tested, in triplicate, and exposed to human RAGE-Fc (100 nM) followed by goat anti-human secondary antibody to detect RAGE bound S100P. Data are compared to S100P/RAGE binding with no inhibitor (DMSO, 100%) and are presented as mean ± SEM; data is significant by one way ANOVA, where ∗ = p < 0.05, ∗∗ = p < 0.01 and ∗∗∗ = p < 0.001; n = 9 from 3 plates.
To generate human S100P recombinant protein, a pQE-30 ([…]) plasmid encoding S100P with N-terminal histidine tags (gifted by Dr Igor Barsukov, Liverpool University, UK), was transformed into BL21∗ competent Escherichia coli cells. Recombinant protein was purified using a HisTrap Nickel-nitrilotriacetic acid (Ni-NTA) agarose column (GE Healthcare, UK).
Purified recombinant S100P (2μM/well) in phosphate buffer (PBS; 137 mM NaCl, 2.7 mM KCl, 10 mM Na2HPO4, 1.8 mM KH2PO4, pH 7.4; supplemented with 1 mM CaCl2, 10 μM ZnCl2, and 0.5 mM MgCl2) was used for coating a 96 well plate (NunclonDelta, Fisher), and incubated overnight at 37 °C.
Following washing, S100P non-specific binding sites were blocked with 1% bovine serum albumin (BSA; Fisher, UK) in PBS for 2 h at 37 °C. Following three washes, S100P was incubated with increasing concentrations of compounds, in parallel to cromolyn and DMSO treated wells, all in triplicate. Then 30 nM recombinant human receptor for advanced glycation end products (rh/RAGE-Fc; R&D Systems) was added and incubated for 1 h at 37 °C. Controls included a negative control (S100P protein, no RAGE-Fc), a positive control (S100P protein plus RAGE), and vehicle control (0.001% DMSO in PBS) were included in each plate. After three washes in PBS, all wells were exposed to goat anti-human HRP conjugate (1:1000; Millipore) for 1 h at 37 °C in order to detect bound receptors. Subsequent to washes, wells were incubated for 20 min in the dark with 3,3′,5,5′-tetramethylbenzidene (TMB) substrate (Sigma, UK). Plates were read at 450 nm using a Multiskan Ascent spectrophotometer (Fisher Scientific, UK). All sample readings were normalized to the positive control (S100P plus RAGE-Fc). Statistical analysis was performed and graphs plotted using the GraphPad Prism software in the following way: One Way ANOVA was used to compare the effects of concentration of each compound to the effects of vehicle control (DMSO), and p values of <0.05 were considered statistically significant. A post hoc analysis was conducted using Dunnetts multiple comparisons test; results are indicated by ∗ = p < 0.05; ∗∗ = p < 0.01 and ∗∗∗ = p < 0.001.

[2] = system: Panc-1 cells; experiment: LDH release from cells in upper Transwell chamber, Panc-1; type: cell-based, Human; settings: Panc-1, 48 h; hit compounds 10 μM, cromolyn 10, 100 and 300 μM
Description: (§1) In order to exclude any possibility that reduced cell invasiveness was due to cell death during the time period of the assay, the viability of cells in the upper Transwell® chamber was assessed via measurement of LDH release. […] (Supplementary Data).
(§2) Figure S2: No significant difference in cell toxicity, measured by LDH release, is observed between treated and untreated cells in the Transwell® invasion assay. Cytotoxicity was measured using the medium recovered from the upper chamber of each Transwell ® chamber which contained BxPC-3 (A) and Panc-1 (B) cells treated with cromolyn (10 µM, 100 µM, and 300 µM) and hit compounds (10 µM) and incubated for 48 h. Data are the mean ± SEM of three independent experiments (n=3). One-way ANOVA assessed significance, and Dunnett post-hoc test is denoted by ns=P>0.05 in comparison to untreated control.

[3] = system: BxPC-3 cells (S100P-expressing); experiment: LDH release cytotoxicity assay, BxPC-3; type: cell-based, Human; settings: BxPC-3, 10 μM, over three days incubation, compared to vehicle control
Description: Metabolic activity and cytotoxicity/cytolysis were measured with the MTS (CellTiter® 96 AQueous One Solution assay, Promega) and LDH release (CytoTox-ONE™ Homogeneous Membrane Integrity assay, Promega) assays respectively, in S100P-expressing (BxPC-3) and S100P-negative (Panc-1) cell lines, at a compound concentration of 10 μM. Cromolyn was used as a positive control.
1 × 10^5 Panc-1 cells and 1x10^5 BxPC-3 cells were plated and allowed to adhere for 24 h; the cells were treated with cromolyn or the hit compounds for up to 3 days. MTS (CellTiter® 96 AQueous One Solution assay, Promega) and LDH release (CytoTox-ONE™ Homogeneous Membrane Integrity assay, Promega) assays were carried out every 24 h for a total of 3 days. MTS data was calculated in the following manner: OD for background absorbance was subtracted and all samples normalized to untreated cells in order to ascertain whether any compound-dependent effect occurred.
(§3) Since formazan formation is proportional to LDH release, data was calculated by subtracting the OD background and plotting the mean ± SEM.
10^5 BxPC3 cells were treated with 10 µM hit compounds for 24 hours, and the effect on LDH staining for each time point measured by fluorescence microplate reader.

[4] = system: BxPC-3 cells (S100P-positive); experiment: Transwell Matrigel invasion assay, BxPC-3; type: cell-based, Human; settings: 10% FBS chemoattractant
Description: The effect of the S100P-binding hit compounds to inhibit cell invasion in S100P-expressing cells in vitro was measured via a Transwell invasion assay. In this assay, cells invade through the matrigel on upper Transwell chamber towards a lower chamber containing a chemoattractant.
Data is shown as mean ± SEM number of invasive cells as counted under the microscope (x100).
The Transwell invasion assay (Fisher Scientific, Germany) was performed using chambers with polyethylene terephthalate (PET) membrane filters with 8 μm pore size coated on the upper side with Matrigel (a layer of extracellular matrix (ECM) to mimic the process of the ECM invasion.
BxPC-3 and Panc-1 cells were cultured as described above for 24 h, were re-suspended and diluted in the appropriate serum-free medium to a seeding density of 2 × 10^5 cells/mL and added to the upper chambers of the Transwell invasion chambers. DMEM and RPMI-1640 media were supplemented with 10% fetal bovine serum (FBS; Sigma, USA) to act as a chemoattractant. […]
Cells that had passed through the matrigel coated membrane to the lower surface were fixed and stained with Diff-Quik stain kit (Fisher, USA) according to the manufacturer’s instructions. […] The number of invaded cells were counted in five different fields of view using the ImageJ 1.50i software (windows version of NIH Image, http://rsb.info.nih.gov/nih-image/). […]

[5] = system: Panc-1 cells (S100P-negative); experiment: LDH release cytotoxicity assay, Panc-1; type: cell-based, Human; settings: Panc-1, 10 μM, over three days incubation, compared to vehicle control
Description: Metabolic activity and cytotoxicity/cytolysis were measured with the MTS (CellTiter® 96 AQueous One Solution assay, Promega) and LDH release (CytoTox-ONE™ Homogeneous Membrane Integrity assay, Promega) assays respectively, in S100P-expressing (BxPC-3) and S100P-negative (Panc-1) cell lines, at a compound concentration of 10 μM. Cromolyn was used as a positive control. […]
1 × 10^5 Panc-1 cells and 1x10^5 BxPC-3 cells were plated and allowed to adhere for 24 h; the cells were treated with cromolyn or the hit compounds for up to 3 days. […] MTS data was calculated in the following manner: OD for background absorbance was subtracted and all samples normalized to untreated cells in order to ascertain whether any compound-dependent effect occurred.
as §3
10^5 Panc- 1 cells were treated with 10 µM hit compounds for 24 hours, and the effect on LDH staining for each time point measured by fluorescence microplate reader.

[6] = system: BxPC-3 cells; experiment: LDH release from cells in upper Transwell chamber, BxPC-3; type: cell-based, Human; settings: BxPC-3, 48 h; hit compounds 10 μM, cromolyn 10, 100 and 300 μM
Description: as §1, §2

| concentration with significant inhibition of S100P-RAGE binding ([1]; ELISA) [nM] | IC50 ([1]; Table 1, ELISA, human S100P 2 μM coated wells, human RAGE-Fc) [nM] | ELISA inhibition ([1]; Table 2) | melting point [°C] | IC50 ([1]; Table 2, ELISA, analog series of hit 4) [nM] | SMILES | maximum inhibition of S100P-RAGE binding ([1]; ELISA) [%] | LDH release of cells in upper Transwell chamber [2] | cytotoxicity (LDH release) [3] | inhibition of cell invasion to the lower chamber ([4]; BxPC-3, 10 μM, 48 h) | concentration with significant inhibition of invasion ([4]; BxPC-3, 48 h) [µM] | cytotoxicity (LDH release) [5] | LDH release of cells in upper Transwell chamber [6] |
| --- | --- | --- | --- | --- | --- | --- | --- | --- | --- | --- | --- | --- |
| ≥ 10 | 22.7 | 10 nM∗∗ | 271 to 272 |  | O=C(O)c1cccc(N2C(=O)C3C4c5ccccc5C([N+](=O)[O-])(c5ccccc54)C3C2=O)c1 (stereo not shown) [Compound 4, 3-(9-Nitro-12,14-dioxo-9,10-dihydro-9,10-[3,4]epipyrroloanthracen-13-yl)benzoic acid] |  |  |  |  |  |  |  |
| ≤ 100 |  | 100 nM∗ | 241 to 243 |  | O=C1C2C3c4ccccc4C([N+](=O)[O-])(c4ccccc43)C2C(=O)N1c1cccc(F)c1 (stereo not shown) [Compound 4b, 13-(3-fluorophenyl)-9-nitro-9,10-dihydro-9,10-[3,4]epipyrroloanthracene-12,14-dione] |  |  |  |  |  |  |  |
| ≤ 100 |  | 10 nM∗ | 228 to 230 | 1.3 | O=C1C2C3c4ccccc4C(c4ccccc43)C2C(=O)N1c1cccc(F)c1 (stereo not shown) [Compound 4o, 13-(3-fluorophenyl)-9,10-dihydro-9,10-[3,4]epipyrroloanthracene-12,14-dione] |  |  |  |  |  |  |  |

| SMILES | concentration with significant inhibition of S100P-RAGE binding ([1]; ELISA) [nM] | IC50 ([1]; Table 1, ELISA, human S100P 2 μM coated wells, human RAGE-Fc) [nM] | ELISA inhibition ([1]; Table 2) | melting point [°C] | IC50 ([1]; Table 2, ELISA, analog series of hit 4) [nM] | maximum inhibition of S100P-RAGE binding ([1]; ELISA) [%] | LDH release of cells in upper Transwell chamber [2] | cytotoxicity (LDH release) [3] | inhibition of cell invasion to the lower chamber ([4]; BxPC-3, 10 μM, 48 h) | concentration with significant inhibition of invasion ([4]; BxPC-3, 48 h) [µM] | cytotoxicity (LDH release) [5] | LDH release of cells in upper Transwell chamber [6] |
| --- | --- | --- | --- | --- | --- | --- | --- | --- | --- | --- | --- | --- |
| O=C(O)c1cc(=O)c2c(OCC(O)COc3cccc4oc(C(=O)O)cc(=O)c34)cccc2o1 [cromolyn] | ≥ 100 |  |  |  |  | 56 | no significant increase in LDH release | neither the hit compounds nor cromolyn exhibited cytotoxicity | did not exhibit a statistically significant effect | ≥ 100 | neither the hit compounds nor cromolyn exhibited cytotoxicity | no significant increase in LDH release |
